Experimental data taken from patent EP4702986A1, “POLYPEPTIDE AND USE THEREOF” (Biocells (Beijing) Biotech Co., Ltd., priority 2023, dated 2024).
Like-named read-outs stand apart in the source and are kept apart here. Numbered stars: 1 amine (or outer) side, 2 acyl side, 3 side chain; on linkers, the order of the positions; unused ones are H or OH. Side chains are listed from the residue outwards. Ends that are not written are not given here. Peptide text beside a SMILES is read from it. * marks the point of attachment. X1 = C[C@H](NC(=O)[C@@H]1CCCN1C(=O)[C@@H](N)CSC1CC(=O)N(CCC(=O)*)C1=O)C(=O)N[C@@H](CCCCN)C(=O)O; C18 diacid = O=C(O)CCCCCCCCCCCCCCCCC(=O)*; γGlu = O=C(O)[C@H](CCC(=O)[*:2])N[*:1]; Fumaroyl = O=C(O)/C=C/C(=O)*; Suc = O=C(CCC(=O)[*:2])[*:1]; Lauroyl = CCCCCCCCCCCC(=O)*; AEEA = NCCOCCOCC(=O)O

Tests used:
human ETB receptor = target: T1, human ETB receptor (Homo sapiens, UniProt P24530); test: Determination of EC50 of polypeptides against human ETB receptor (IP-One Gq kit); assay type: cell-based
T1 construct: expressed in transfected cells; host or cells: 293T-17 cells, transient transfection
T1 sequence (P24530 27-442): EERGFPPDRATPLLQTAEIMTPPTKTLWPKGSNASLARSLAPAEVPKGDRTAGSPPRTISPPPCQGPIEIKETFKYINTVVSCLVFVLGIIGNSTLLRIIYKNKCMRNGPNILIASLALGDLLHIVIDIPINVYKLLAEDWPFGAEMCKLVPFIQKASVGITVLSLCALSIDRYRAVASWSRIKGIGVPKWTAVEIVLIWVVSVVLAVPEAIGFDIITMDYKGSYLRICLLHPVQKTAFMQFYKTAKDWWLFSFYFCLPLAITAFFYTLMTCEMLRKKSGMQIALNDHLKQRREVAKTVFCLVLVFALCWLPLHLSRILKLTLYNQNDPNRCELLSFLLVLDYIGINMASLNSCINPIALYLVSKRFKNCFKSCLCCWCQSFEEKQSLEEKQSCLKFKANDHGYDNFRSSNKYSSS
Procedure: 293T-17 cells were seeded at a density of 650,000 cells per well in a 6-well plate and cultured overnight in an incubator at 37°C and 5% CO2. Afterward, the cells were transfected with an expression vector, PCDNA3.1-hETB which contained a human ETB receptor gene, at a plasmid concentration of 2.5 µg per well. The cells were further cultured for 48 hours, and green fluorescence expression was observed under a fluorescence microscope. The cells were then digested with trypsin and counted. The activity of compounds on the human ETB receptor was determined with the IP-One Gq kit from Cisbio Bioassays. The cells were suspended in Stim Buffer provided in the kit and the cell suspension was added to a 96-well detection plate at 7 µL cell suspension (containing 30,000 cells) per well. The polypeptides to be tested (prepared according to the Preparation Example of the invention) were diluted in Stim B to obtain a gradient of 11 concentration points. For each concentration point, the polypeptides to be tested were dissolved in Stim B to be at a concentration of 2×, and added at 7 µL to the test cells, while 7 µL of PBS solution was added to the cells in the negative control wells. The plate was sealed and incubated at 37°C for 1 hour in a cell culture incubator. Detection wells, positive control wells containing human endothelin ET1 (ET1: […] (C1-C15,C3-C11)), and PBS control wells were each added with 3 µL of IP1 d2 working solution and 3 µL of IP1 Tb cryptotate Antibody working solution. The plate was then sealed and incubated in the dark at room temperature (25°C±5°C) for 1 hour. The plate seal was removed, and the […] at 665 nm and 620 nm was measured with an ID5 microplate reader. The ratio of the acceptor emission signal to the donor emission signal, i.e., (signal at 665 nm/signal at 620 nm)×10^4, was calculated for each well. With F representing the average value of values of signal at 665 nm/signal at 620 nm for the test samples at various concentrations, a scatterplot was plotted, where the abscissa represented the F value, and the ordinate represented the logarithmic value of the peptide concentration. A curve was fitted with an appropriate method to calculate EC50 values of the polypeptides against the human ETB receptor. Another method was provided for fitting a curve where activation rate of the test polypeptides at each concentration relative to the positive control sample human endothelin ET1 was calculated first with the method in Example 1, and a scatterplot was plotted, where the abscissa represented the activation rate, and the ordinate represented the logarithmic value of the polypeptide concentration. A curve was fitted with an appropriate method to calculate the EC50 values of the polypeptides against the human ETB receptor.

human ETA receptor = target: T2, human ETA receptor (Homo sapiens, UniProt P25101); test: Selectivity of polypeptides on human ETA receptor (IP-One Gq kit, % of positive control ET1); assay type: cell-based
T2 construct: expressed in transfected cells; host or cells: 293T-17 cells, transient transfection
T2 sequence (P25101 21-427): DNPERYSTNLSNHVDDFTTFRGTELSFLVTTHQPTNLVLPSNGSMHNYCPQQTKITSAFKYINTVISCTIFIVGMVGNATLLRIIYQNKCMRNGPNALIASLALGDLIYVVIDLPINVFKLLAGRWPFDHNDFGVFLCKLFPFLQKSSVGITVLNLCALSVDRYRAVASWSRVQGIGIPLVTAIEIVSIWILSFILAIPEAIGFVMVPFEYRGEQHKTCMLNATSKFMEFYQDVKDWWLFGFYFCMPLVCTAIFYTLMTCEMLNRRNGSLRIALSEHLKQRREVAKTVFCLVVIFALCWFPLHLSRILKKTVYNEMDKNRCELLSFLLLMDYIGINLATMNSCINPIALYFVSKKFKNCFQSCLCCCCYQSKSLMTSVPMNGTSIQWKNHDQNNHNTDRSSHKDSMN
Outline: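 293T-17 cells transiently transfected with human ETA receptor (48 h), 30,000 cells/well exposed to polypeptides for 1 h at 37°C; IP1 accumulation by HTRF (665/620 nm ratio). Activity given as % of ET1 at the same concentration after PBS-control subtraction.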

[1] = 293T-17 cells transfected with PCDNA3.1-hETB, read-out: hETBR agonist activity EC50/nM
[2] = read-out: hETAR agonist activity, percentage of activity relative to ET1

## CCCCCCCCCCCC(=O)N[C@@H](CCC(=O)NCCOCCOCC(=O)NCCCC[C@H](NC(=O)[C@H](Cc1c[nH]cn1)NC(=O)[C@H](C)NC(=O)[C@H](Cc1ccccc1)NC(=O)[C@H](Cc1ccc(O)cc1)NC(=O)[C@@H](NC(=O)[C@H](C)NC(=O)[C@H](CCC(=O)O)NC(=O)[C@H](CCC(=O)O)NC(=O)[C@H](CC(=O)O)NC(=O)/C=C/C(=O)O)C(C)C)C(=O)N[C@@H](CC(=O)O)C(=O)N[C@H](C(=O)N[C@H](C(=O)N[C@@H](Cc1c[nH]c2ccccc12)C(=O)O)[C@@H](C)CC)C(C)C)C(=O)O [BX229-Na] (Fumaroyl-DEEAVYFAHK([AEEA-γGlu-Lauroyl])DVIW-OH)
Human ETB receptor; [1]
  EC50: 16.7 nM
Human ETA receptor; @100µM, read-out: hETAR agonist activity, percentage of activity relative to ET1
  activation at 100 µM: 0.68%

## CC[C@H](C)[C@H](NC(=O)[C@H](CC(=O)O)NC(=O)[C@H](CCCCNC(=O)COCCOCCNC(=O)COCCOCCNC(=O)CC[C@H](NC(=O)CCCCCCCCCCCCCCCCC(=O)O)C(=O)O)NC(=O)[C@H](Cc1c[nH]cn1)NC(=O)[C@H](C)NC(=O)[C@H](Cc1ccccc1)NC(=O)[C@H](Cc1ccc(O)cc1)NC(=O)[C@@H](NC(=O)[C@H](C)NC(=O)[C@H](CCC(=O)O)NC(=O)[C@H](CCC(=O)O)NC(=O)[C@H](CC(=O)O)NC(=O)/C=C/C(=O)O)C(C)C)C(=O)N[C@H](C(=O)N[C@@H](Cc1c[nH]c2ccccc12)C(=O)O)[C@@H](C)CC [BX-34] (Fumaroyl-DEEAVYFAHK([AEEA-AEEA-γGlu-C18 diacid])DIIW-OH)
Human ETA receptor; [2]
  activation at 0.01 µM: -23.5%
  activation at 0.1 µM: -11%

## CC[C@H](C)[C@H](NC(=O)[C@H](CC(=O)O)NC(=O)[C@H](CCCCNC(=O)COCCOCCNC(=O)CCN1C(=O)CC(SC[C@H](N)C(=O)N2CCC[C@H]2C(=O)N[C@@H](C)C(=O)N[C@@H](CCCCN)C(=O)O)C1=O)NC(=O)[C@H](Cc1c[nH]cn1)NC(=O)[C@H](C)NC(=O)[C@H](Cc1ccccc1)NC(=O)[C@H](Cc1ccc(O)cc1)NC(=O)[C@@H](NC(=O)[C@H](C)NC(=O)[C@H](CCC(=O)O)NC(=O)[C@H](CCC(=O)O)NC(=O)[C@H](CC(=O)O)NC(=O)/C=C/C(=O)O)C(C)C)C(=O)N[C@H](C(=O)N[C@@H](Cc1c[nH]c2ccccc12)C(=O)O)[C@@H](C)CC (stereo partly shown) [BX-95] (Fumaroyl-DEEAVYFAHK([AEEA-X1])DIIW-OH)
Human ETB receptor; [1]
  EC50: 45.6 nM
Human ETA receptor; [2]
  activation at 10 µM: -9.81%
  activation at 100 µM: -7.46%

## CCCCCCCCCCCC(=O)N[C@@H](CCC(=O)NCCOCCOCC(=O)NCCCC[C@H](NC(=O)[C@H](Cc1c[nH]cn1)NC(=O)[C@H](C)NC(=O)[C@H](Cc1ccccc1)NC(=O)[C@H](Cc1ccc(O)cc1)NC(=O)[C@@H](NC(=O)[C@H](C)NC(=O)[C@H](CCC(=O)O)NC(=O)[C@H](CCC(=O)O)NC(=O)[C@H](CC(=O)O)NC(=O)/C=C/C(=O)O)C(C)C)C(=O)N[C@@H](CC(=O)O)C(=O)N[C@H](C(=O)N[C@H](C(=O)N[C@@H](Cc1c[nH]c2ccccc12)C(=O)O)[C@@H](C)CC)[C@@H](C)CC)C(=O)O [BX-225] (Fumaroyl-DEEAVYFAHK([AEEA-γGlu-Lauroyl])DIIW-OH)
Human ETA receptor; [2]
  activation at 10 µM: 0.52%
  activation at 100 µM: 3.59%

## CC[C@H](C)[C@H](NC(=O)[C@H](CC(=O)O)NC(=O)[C@H](CC(C)C)NC(=O)[C@H](Cc1c[nH]cn1)NC(=O)[C@H](C)NC(=O)[C@H](Cc1ccccc1)NC(=O)[C@H](Cc1ccc(O)cc1)NC(=O)[C@@H](NC(=O)[C@H](C)NC(=O)[C@H](CCC(=O)O)NC(=O)[C@H](CCC(=O)O)NC(=O)[C@H](CC(=O)O)NC(=O)CCC(=O)O)C(C)C)C(=O)N[C@H](C(=O)N[C@@H](Cc1c[nH]c2ccccc12)C(=O)O)[C@@H](C)CC [IRL1620, reference compound] (Suc-DEEAVYFAHLDIIW-OH)
Human ETB receptor
  EC50: 1.33 nM

## Fum-DEEEVYFAHKDIIW (Fumaroyl-DEEEVYFAHKDIIW) [BX-52]
Human ETA receptor; @10nM
  hETAR agonist activity, percentage of activity relative to ET1: -2.49%@10nM
Human ETA receptor; @100nM
  hETAR agonist activity, percentage of activity relative to ET1: -11.24%@100nM

## Fum-DEEEVYFAHOrnDIIW [BX-59]
Human ETA receptor
  hETAR agonist activity, percentage of activity relative to ET1: -7.67%@100µM
Human ETA receptor; @10µM
  hETAR agonist activity, percentage of activity relative to ET1: -10.61%@10µM

## Suc-DE cyclo(CEEC)YFAHKDIIW (Suc-DECEECYFAHKDIIW; not fully specified (bridges); printed as Suc-DE cyclo(CEEC)YFAHKDIIW; also: cyclo(CEEC) in N-terminal extension, bond type not given here) [BX-57]
Human ETA receptor
  hETAR agonist activity, percentage of activity relative to ET1: -10.53%@100µM
Human ETA receptor; @10µM
  hETAR agonist activity, percentage of activity relative to ET1: -29.04%@10µM
